Laboratory results as given in patent US10077261B2, “Imidazolin-5-one derivative useful as FASN inhibitors for the treatment of cancer” (Janssen Pharmaceutica NV, priority 2012, dated 2018).

Key:
[1] = molecular target: Fatty Acid Synthase Keto-reductase Domain (FASN KR) (Homo sapiens, UniProt P49327); assay: Fatty Acid Synthase keto-reductase domain (FASN KR) inhibition, NADPH oxidation at 340 nm
Procedure: After 20 minutes incubation at room temperature the plate was measured again (T2).
The decrease in absorbance was calculated as (Absorbance before incubation T1)−(Absorbance following incubation T2).
A plot of Controlmin versus test compound concentration was fitted to a 4-parameter logistic curve using a non-linear least squares regression method.

[2] = molecular target: T1, hFASN enzyme (full length) (Homo sapiens, UniProt P49327); assay: Fatty Acid Synthase (FASN) inhibition scintillation proximity assay; assay type: biochemical; conditions: for inhibition at 10 µM: read-out: Human FASN % inhibition @ 10 μM, 10 μM test compound; for IC50: read-out: Human FASN pIC50 (converted)
T1 construct: 10 μL hFASN enzyme (full length, 300 ng, purified in house); made in house
Procedure, shortened: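 Compounds at 0.01–30 μM were mixed with 300 ng purified full-length enzyme in 100 mM KH2PO4 pH 7.5, 1 mM DTT. Substrates ³H-acetyl-CoA and malonyl-CoA were then converted, and bead addition stopped the reaction. Signal was normalised to low and high plate controls and fitted by 4-parameter nonlinear regression.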

A2780 ovarian cells [3] = assay: A2780 ovarian cell proliferation assay in lipid reduced medium, with palmitate (MTT); assay type: cell-based; conditions: Homo sapiens, A2780, 96 h; read-out: pIC50 A2780 Ovarian Cell, With Palmitate (converted)
Procedure, shortened: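 Seeded cells were switched next day to lipid-reduced serum, exposed to compound and 25 μM palmitate complexed with fatty-acid-free BSA, and incubated 96 h. Proliferation was then determined by MTT absorbance at 544 nm, with a best-fit curve of signal against concentration.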

[4] = system: PC-3M-Luc-C6 prostate cells; assay: In vitro PC-3M-Luc-C6 prostate cell proliferation assay in lipid reduced medium; assay type: cell-based; conditions: 96 h, read-out: pIC50 PC-3M-Luc-C6 prostate cell (converted)
[5] = system: LNCaP-Vancouver prostate cells; assay: In vitro LNCaP Vancouver prostate cell proliferation assay in lipid reduced medium; assay type: cell-based; conditions: read-out: pIC50 LNCaP_Vancouver prostate cell (converted)
A2780 ovarian cells [6] = assay: A2780 ovarian cell proliferation assay in lipid reduced medium, without palmitate (MTT); assay type: cell-based; conditions: Homo sapiens, A2780, 96 h; read-out: pIC50 A2780 Ovarian Cell, Without Palmitate (converted)

Sequence of Fatty Acid Synthase Keto-reductase Domain (FASN KR) (P49327 whole entry, the tested form may be a part): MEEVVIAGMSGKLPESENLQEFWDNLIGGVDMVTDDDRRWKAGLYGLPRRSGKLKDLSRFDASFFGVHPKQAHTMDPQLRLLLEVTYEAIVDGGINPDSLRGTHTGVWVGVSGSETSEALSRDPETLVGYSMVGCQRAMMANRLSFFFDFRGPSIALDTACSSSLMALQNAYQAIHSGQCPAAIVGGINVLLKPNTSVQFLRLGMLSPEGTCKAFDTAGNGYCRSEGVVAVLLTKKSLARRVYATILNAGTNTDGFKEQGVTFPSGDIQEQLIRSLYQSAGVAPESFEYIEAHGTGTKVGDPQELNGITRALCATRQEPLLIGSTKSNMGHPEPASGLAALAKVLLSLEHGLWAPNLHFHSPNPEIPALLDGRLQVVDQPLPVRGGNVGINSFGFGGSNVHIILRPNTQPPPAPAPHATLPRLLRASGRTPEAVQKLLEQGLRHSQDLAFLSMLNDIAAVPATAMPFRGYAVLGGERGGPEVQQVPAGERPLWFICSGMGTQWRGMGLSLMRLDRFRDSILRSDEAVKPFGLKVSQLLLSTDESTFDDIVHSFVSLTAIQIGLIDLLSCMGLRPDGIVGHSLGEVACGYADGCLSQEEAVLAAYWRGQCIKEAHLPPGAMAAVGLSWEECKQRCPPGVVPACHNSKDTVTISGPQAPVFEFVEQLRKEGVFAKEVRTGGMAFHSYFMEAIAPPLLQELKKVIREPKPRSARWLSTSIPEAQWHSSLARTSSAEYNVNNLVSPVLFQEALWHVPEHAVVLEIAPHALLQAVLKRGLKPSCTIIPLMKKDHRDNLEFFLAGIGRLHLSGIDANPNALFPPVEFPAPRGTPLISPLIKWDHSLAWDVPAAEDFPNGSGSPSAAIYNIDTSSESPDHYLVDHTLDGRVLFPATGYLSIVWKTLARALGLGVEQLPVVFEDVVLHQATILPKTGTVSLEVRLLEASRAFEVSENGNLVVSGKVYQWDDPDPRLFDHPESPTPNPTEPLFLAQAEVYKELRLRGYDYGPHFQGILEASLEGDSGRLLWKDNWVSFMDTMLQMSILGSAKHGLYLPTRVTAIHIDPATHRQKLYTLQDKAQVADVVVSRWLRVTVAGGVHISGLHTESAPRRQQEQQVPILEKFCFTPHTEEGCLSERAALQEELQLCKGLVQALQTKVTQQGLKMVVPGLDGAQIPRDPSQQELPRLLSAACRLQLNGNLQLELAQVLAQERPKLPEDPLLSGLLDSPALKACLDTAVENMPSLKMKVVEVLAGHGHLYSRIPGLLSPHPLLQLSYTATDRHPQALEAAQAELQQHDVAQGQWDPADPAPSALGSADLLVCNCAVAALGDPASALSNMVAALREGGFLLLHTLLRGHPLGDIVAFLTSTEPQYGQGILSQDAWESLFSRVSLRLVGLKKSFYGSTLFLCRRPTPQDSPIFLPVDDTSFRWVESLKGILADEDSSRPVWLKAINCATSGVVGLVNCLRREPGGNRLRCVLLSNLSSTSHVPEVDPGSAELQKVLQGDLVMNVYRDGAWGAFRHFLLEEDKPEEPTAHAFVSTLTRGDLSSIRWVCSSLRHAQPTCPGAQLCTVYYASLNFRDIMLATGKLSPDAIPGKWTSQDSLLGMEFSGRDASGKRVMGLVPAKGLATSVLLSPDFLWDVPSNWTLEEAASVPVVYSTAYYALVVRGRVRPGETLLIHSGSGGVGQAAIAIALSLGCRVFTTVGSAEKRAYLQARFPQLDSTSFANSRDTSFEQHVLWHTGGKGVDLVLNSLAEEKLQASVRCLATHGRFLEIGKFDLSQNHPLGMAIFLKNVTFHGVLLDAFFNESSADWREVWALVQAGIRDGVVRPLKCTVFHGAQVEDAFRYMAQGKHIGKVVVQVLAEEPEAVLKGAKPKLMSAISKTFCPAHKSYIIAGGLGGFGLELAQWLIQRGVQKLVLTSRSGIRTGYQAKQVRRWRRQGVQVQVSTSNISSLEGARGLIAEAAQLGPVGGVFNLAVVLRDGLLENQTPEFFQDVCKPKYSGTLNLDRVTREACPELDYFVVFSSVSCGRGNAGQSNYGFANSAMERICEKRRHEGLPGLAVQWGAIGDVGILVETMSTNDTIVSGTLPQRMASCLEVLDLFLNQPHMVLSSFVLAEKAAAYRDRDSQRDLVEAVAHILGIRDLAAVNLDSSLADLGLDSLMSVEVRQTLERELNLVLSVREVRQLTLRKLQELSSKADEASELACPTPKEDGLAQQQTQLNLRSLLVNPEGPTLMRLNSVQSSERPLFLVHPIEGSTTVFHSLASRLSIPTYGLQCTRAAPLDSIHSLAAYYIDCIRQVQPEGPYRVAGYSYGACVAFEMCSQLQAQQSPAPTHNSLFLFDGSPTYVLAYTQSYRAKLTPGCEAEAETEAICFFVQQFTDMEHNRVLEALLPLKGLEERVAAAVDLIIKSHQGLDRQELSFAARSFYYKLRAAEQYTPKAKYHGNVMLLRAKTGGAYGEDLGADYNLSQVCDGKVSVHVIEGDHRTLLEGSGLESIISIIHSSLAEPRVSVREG
T1 sequence (P49327 whole entry): as the sequence (P49327 whole entry, the tested form may be a part) above

`CC1(C(=O)N2CC(CN3C(=O)C4(CC4)N=C3c3ccc(-c4ccc5cc(F)ccc5c4)cc3F)C2)CC1` [compound 359, 5-(2-fluoro-4-(6-fluoronaphthalen-2-yl)phenyl)-6-((1-(1-methylcyclopropanecarbonyl)azetidin-3-yl)methyl)-4,6-diazaspiro[2.4]hept-4-en-7-one] gave an IC50 [1] of 41.7 nM, an inhibition at 10 µM [2] of 95% and an IC50 [2] of 39.8 nM. For the same molecule, the IC50 (A2780 ovarian cells [3]) was over 6170 nM, the IC50 [4] was 8.32 nM and the IC50 [5] was about 79.4 nM. The IC50 (A2780 ovarian cells [6]) was 8.13 nM.

`Cn1ncc2cc(-c3ccc(C4=NC5(CC5)C(=O)N4C[C@@H]4CCN(C(=O)C5(C)CC5)C4)c(F)c3)ccc21` [compound 361, (R)-5-(2-fluoro-4-(1-methyl-1H-indazol-5-yl)phenyl)-6-((1-(1-methylcyclopropanecarbonyl)pyrrolidin-3-yl)methyl)-4,6-diazaspiro[2.4]hept-4-en-7-one] was tested, and the IC50 [1] was 45.7 nM, the inhibition at 10 µM [2] was 103% and the IC50 [2] was 39.8 nM. The IC50 (A2780 ovarian cells [3]) was over 10000 nM, the IC50 [4] was 3.24 nM and the IC50 [5] was about 12.9 nM. For the same molecule, the IC50 (A2780 ovarian cells [6]) was about 3.63 nM.

For `Cn1nccc1-c1ccc(-c2ccc(C3=NC4(CC4)C(=O)N3C[C@@H]3CCN(C(=O)C4(C)CC4)C3)c(F)c2)cc1` [compound 362], the IC50 [1] was 126 nM, the inhibition at 10 µM [2] was 96% and the IC50 [2] was 77.6 nM. It also gave an IC50 (A2780 ovarian cells [3]) of over 10000 nM, an IC50 [4] of about 56.2 nM and an IC50 [5] of about 295 nM. It also gave an IC50 (A2780 ovarian cells [6]) of about 42.7 nM.

For `O=C(N1CC(CN2C(=O)C3(CC3)N=C2c2ccc(-c3ccc4cc(F)ccc4c3)cc2F)C1)C1(O)CC1` [compound 365, 5-(2-fluoro-4-(6-fluoronaphthalen-2-yl)phenyl)-6-((1-(1-hydroxycyclopropanecarbonyl)azetidin-3-yl)methyl)-4,6-diazaspiro[2.4]hept-4-en-7-one], the IC50 [1] was 53.7 nM, the inhibition at 10 µM [2] was 97% and the IC50 [2] was 23.4 nM. The IC50 (A2780 ovarian cells [3]) was about 10000 nM, the IC50 [4] was 7.59 nM and the IC50 [5] was 56.2 nM. For the same molecule, the IC50 (A2780 ovarian cells [6]) was 6.46 nM.

`O=C(C1CC1)N1CC(CN2C(=O)C3(CC3)N=C2c2ccc(-c3ccc4ccccc4c3)cc2F)C1` [compound 368, 6-((1-(1-cyclopropanecarbonyl)azetidin-3-yl)methyl)-5-(2-fluoro-4-(naphthalen-2-yl)phenyl)-4,6-diazaspiro[2.4]hept-4-en-7-one] showed an IC50 [1] of 58.9 nM, an inhibition at 10 µM [2] of 90% and an IC50 [2] of 28.2 nM. The IC50 (A2780 ovarian cells [3]) was 4470 nM, the IC50 [4] was 28.8 nM and the IC50 [5] was 214 nM. For the same molecule, the IC50 (A2780 ovarian cells [6]) was 21.4 nM.

`O=C(C1CCO1)N1CC(CN2C(=O)C3(CC3)N=C2c2ccc(-c3ccc4cc(F)ccc4c3)cc2F)C1` (centres unmarked) [compound 369, 5-(2-fluoro-4-(6-fluoronaphthalen-2-yl)phenyl)-6-((1-(oxetan-2-carbonyl)azetidin-3-yl)methyl)-4,6-diazaspiro[2.4]hept-4-en-7-one] gave an IC50 [1] of 37.2 nM, an inhibition at 10 µM [2] of 102% and an IC50 [2] of 26.3 nM. It also gave an IC50 (A2780 ovarian cells [3]) of 2090 nM, an IC50 [4] of 10 nM and an IC50 [5] of 45.7 nM. The IC50 (A2780 ovarian cells [6]) was 4.27 nM.

In the case of `Cn1ncc2cc(-c3ccc(C4=NC5(CC5)C(=O)N4C[C@@H]4CCN(C(=O)C5(O)CC5)C4)c(F)c3)ccc21` [compound 370, (R)-5-(2-fluoro-4-(1-methyl-1H-indazol-5-yl)phenyl)-6-((1-(1-hydroxycyclopropanecarbonyl)pyrrolidin-3-yl)methyl)-4,6-diazaspiro[2.4]hept-4-en-7-one], the IC50 [1] is reported as 40.7 nM, the inhibition at 10 µM [2] is reported as 100% and the IC50 [2] is reported as 28.8 nM. The IC50 (A2780 ovarian cells [3]) was over 10000 nM, the IC50 [4] was about 3.89 nM and the IC50 [5] was 20.4 nM. For the same molecule, the IC50 (A2780 ovarian cells [6]) was about 2.4 nM.

Work on `Cn1nccc1-c1ccc(-c2ccc(C3=NC4(CC4)C(=O)N3C[C@@H]3CCN(C(=O)C4(O)CC4)C3)c(F)c2)cc1` [compound 371, (R)-5-(3-fluoro-4′-(1-methyl-1H-pyrazol-5-yl)-[1,1′-biphenyl]-4-yl)-6-((1-(1-hydroxycyclopropanecarbonyl)pyrrolidin-3-yl)methyl)-4,6-diazaspiro[2.4]hept-4-en-7-one] yielded an IC50 [1] of 129 nM, an inhibition at 10 µM [2] of 101% and an IC50 [2] of 56.2 nM. It also gave an IC50 (A2780 ovarian cells [3]) of 8130 nM, an IC50 [4] of 55 nM and an IC50 [5] of 490 nM. The IC50 (A2780 ovarian cells [6]) was 72.4 nM.

With `O=C(N1CC(CN2C(=O)C3(CC3)N=C2c2ccc(-c3ccc4ccccc4c3)cc2F)C1)C1(O)CC1` [compound 372, 5-(2-fluoro-4-(naphthalen-2-yl)phenyl)-6-((1-(1-hydroxycyclopropanecarbbonyl)azetidin-3-yl)methyl)-4,6-diazaspiro[2.4]hept-4-en-7-one] the IC50 [1] was 49 nM, the inhibition at 10 µM [2] was 101% and the IC50 [2] was 16.2 nM. For the same molecule, the IC50 (A2780 ovarian cells [3]) was over 10000 nM, the IC50 [4] was 13.2 nM and the IC50 [5] was 75.9 nM. The IC50 (A2780 ovarian cells [6]) was 5.01 nM.

With `O=C(N1CC(CN2C(=O)C3(CC3)N=C2c2ccc(-c3ccc4cccc(F)c4c3)cc2F)C1)C1(O)CC1` [compound 374, 5-(2-fluoro-4-(8-fluoronaphthalen-2-yl)phenyl)-6-((1-(1-hydroxycyclopropanecarbonyl)azetidin-3-yl)methyl)-4,6-diazaspiro[2.4]hept-4-en-7-one] the IC50 [1] was 35.5 nM, the inhibition at 10 µM [2] was 99% and the IC50 [2] was 25.7 nM. The IC50 (A2780 ovarian cells [3]) was over 10000 nM, the IC50 [4] was 20.4 nM and the IC50 [5] was 87.1 nM. It also gave an IC50 (A2780 ovarian cells [6]) of 10 nM.

`COc1cccc2ccc(-c3ccc(C4=NC5(CC5)C(=O)N4CC4CN(C(=O)C5(O)CC5)C4)c(F)c3)cc12` [compound 375, 5-(2-fluoro-4-(8-methoxynaphthalen-2-yl)phenyl)-6-((1-(1-hydroxycyclopropanecarbonyl)azetidin-3-yl)methyl)-4,6-diazaspiro[2.4]hept-4-en-7-one] was tested, and the IC50 [1] was 89.1 nM, the inhibition at 10 µM [2] was 103% and the IC50 [2] was 43.7 nM. For the same molecule, the IC50 (A2780 ovarian cells [3]) was over 10000 nM, the IC50 [4] was 77.6 nM and the IC50 [5] was 457 nM. It also gave an IC50 (A2780 ovarian cells [6]) of 72.4 nM.

Molecule `Cn1cnc2cc(-c3ccc(C4=NC5(CC5)C(=O)N4CC4CN(C(=O)C5(O)CC5)C4)c(F)c3)ccc21` [compound 377, 5-(2-fluoro-4-(1-methyl-1H-benzo[d]imidazol-5-yl)phenyl)-6-((1-(1-hydroxycyclopropanecarbonyl)azetidin-3-yl)methyl)-4,6-diazaspiro[2.4]hept-4-en-7-one] has an IC50 [1] of about 36.3 nM, an inhibition at 10 µM [2] of 100% and an IC50 [2] of 35.5 nM. It also gave an IC50 (A2780 ovarian cells [3]) of over 10000 nM, an IC50 [4] of 28.2 nM and an IC50 [5] of 81.3 nM. It also gave an IC50 (A2780 ovarian cells [6]) of 22.9 nM.

`Cn1cnc2cc(-c3ccc(C4=NC5(CC5)C(=O)N4CC4CN(C(=O)C5(C)CC5)C4)c(F)c3)ccc21` [compound 378, 5-(2-fluoro-4-(1-methyl-1H-benzo[d]imidazol-5-yl)phenyl)-6-((1-(1-methylcyclopropanecarbonyl)azetidin-3-yl)methyl)-4,6-diazaspiro[2.4]hept-4-en-7-one] was tested, and the IC50 [1] was 45.7 nM, the inhibition at 10 µM [2] was 100% and the IC50 [2] was 38.9 nM. The IC50 (A2780 ovarian cells [3]) was over 10000 nM, the IC50 [4] was 10.5 nM and the IC50 [5] was 74.1 nM. For the same molecule, the IC50 (A2780 ovarian cells [6]) was about 5.13 nM.

Work on `Cn1cc(-c2ccc(-c3ccc(C4=NC5(CC5)C(=O)N4C[C@@H]4CCN(C(=O)C5(O)CC5)C4)c(F)c3)cc2)cn1` [compound 379, (R)-5-(3-fluoro-4′-(1-methyl-1H-pyrazol-4-yl)-[1,1′-biphenyl]-4-yl)-6-((1-(1-hydroxycyclopropanecarbonyl)pyrrolidin-3-yl)methyl)-4,6-diazaspiro[2.4]hept-4-en-7-one] yielded an IC50 [1] of 27.5 nM, an inhibition at 10 µM [2] of 102% and an IC50 [2] of 20 nM. It also gave an IC50 (A2780 ovarian cells [3]) of over 10000 nM, an IC50 [4] of about 2.45 nM and an IC50 [5] of 5.01 nM. It also gave an IC50 (A2780 ovarian cells [6]) of about 1.07 nM.
